Assay results taken from ChEMBL document CHEMBL1158542, “Synthesis and biological evaluation of modified pentapeptides as potent proteinase K inhibitors” (Bioorg Med Chem Lett, 2010).
Active and inactive are the calls of the source. The calls are words filed in the database; no cut-off is given here.

Columns and labels:
[1] = Inhibition of proteinase K at 0.10 mM by RT-PCR analysis in presence of BSA
[2] = Inhibition of proteinase K at 0.05 mM pretreated for 1 hr by RT-PCR analysis
[3] = tested on: HeLa; assay: Inhibition of proteinase K in human HeLa cells assessed as beta-actin RNA level at 0.10 mM by RT-PCR analysis; assay type: cell-based
[4] = Inhibition of proteinase K at 0.25 mM by RT-PCR analysis in presence of BSA
[5] = Inhibition of proteinase K at 0.25 to 1 mM pretreated for 1 hr by RT-PCR analysis
[6] = Inhibition of proteinase K at 0.75 mM pretreated for 1 hr by RT-PCR analysis
[7] = tested on: HeLa; assay: Inhibition of proteinase K in human HeLa cells assessed as beta-actin RNA level at 0.5 mM by RT-PCR analysis; assay type: cell-based
[8] = Inhibition of proteinase K at 0.5 mM pretreated for 1 hr by RT-PCR analysis

Structure (SMILES) | inhibition [1] | inhibition [2] | inhibition [3] | inhibition [4] | inhibition [5] | inhibition [6] | inhibition [7] | inhibition [8]
COC(=O)CCC(=O)N[C@@H](C)C(=O)N[C@H](C)C(=O)N[C@@H](C)C(=O)N1CCC[C@H]1C(=O)N[C@@H](CC(C)C)C(=O)CCl | Active | Active | Active |  |  |  |  | 
COC(=O)CCC(=O)N[C@@H](C)C(=O)N[C@H](C)C(=O)N[C@@H](C)C(=O)N1CCC[C@H]1C(=O)N[C@H](C(=O)CCl)C(C)C |  |  |  | Active | Active | Active | Active | inactive
